The target of the data set is hERG (Potassium voltage-gated channel subfamily H member 2) (Homo sapiens, UniProt Q12809). The experiment in a line: hERG Channel Inhibition. Particulars: HEK293 cells stably expressing hERG channel, pH 7.35. In general terms: The hERG channel carries a current that helps repolarise heart muscle cells.

Molecules are shown by their SMILES.

Sequence of hERG (Potassium voltage-gated channel subfamily H member 2) (Q12809 whole entry): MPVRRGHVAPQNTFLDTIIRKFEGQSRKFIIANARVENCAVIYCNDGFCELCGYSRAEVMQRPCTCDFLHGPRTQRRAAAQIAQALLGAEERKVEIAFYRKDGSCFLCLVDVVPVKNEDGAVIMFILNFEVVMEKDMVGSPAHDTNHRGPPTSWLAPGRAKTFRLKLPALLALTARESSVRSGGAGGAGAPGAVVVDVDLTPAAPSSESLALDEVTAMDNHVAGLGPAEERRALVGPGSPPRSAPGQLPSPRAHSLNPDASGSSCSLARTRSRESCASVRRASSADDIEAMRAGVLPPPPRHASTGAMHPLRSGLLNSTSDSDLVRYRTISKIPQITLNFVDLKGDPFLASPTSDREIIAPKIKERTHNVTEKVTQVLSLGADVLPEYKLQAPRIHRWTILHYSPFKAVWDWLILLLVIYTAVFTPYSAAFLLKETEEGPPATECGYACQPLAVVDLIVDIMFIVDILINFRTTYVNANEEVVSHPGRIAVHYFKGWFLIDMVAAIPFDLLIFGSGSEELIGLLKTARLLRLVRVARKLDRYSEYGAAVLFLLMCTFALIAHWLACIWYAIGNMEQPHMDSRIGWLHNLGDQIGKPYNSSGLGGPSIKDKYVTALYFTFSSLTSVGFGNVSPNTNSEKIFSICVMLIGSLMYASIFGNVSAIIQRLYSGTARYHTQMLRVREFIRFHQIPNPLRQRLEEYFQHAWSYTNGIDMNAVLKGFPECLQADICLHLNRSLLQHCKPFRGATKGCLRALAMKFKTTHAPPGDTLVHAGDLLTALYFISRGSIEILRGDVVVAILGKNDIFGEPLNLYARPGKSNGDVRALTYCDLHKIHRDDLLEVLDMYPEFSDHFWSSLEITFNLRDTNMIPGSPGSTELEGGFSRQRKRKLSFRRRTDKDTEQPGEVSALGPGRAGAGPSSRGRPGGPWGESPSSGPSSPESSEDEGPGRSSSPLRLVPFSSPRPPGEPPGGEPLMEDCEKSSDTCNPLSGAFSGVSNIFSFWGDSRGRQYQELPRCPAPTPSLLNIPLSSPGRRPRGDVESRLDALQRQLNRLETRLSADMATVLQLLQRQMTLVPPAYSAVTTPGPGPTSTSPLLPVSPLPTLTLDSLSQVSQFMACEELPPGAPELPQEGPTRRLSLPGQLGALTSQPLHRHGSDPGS
Procedure: The assay was performed on hERG channel stably expressed in HEK293 cells. The cells were cultured at 37° C. in a humidified CO2 incubator in the growth medium consisting of DMEM, 10% fetal bovine serum and antibiotics. Prior to the assay, the cells were seeded onto a 12-mm PDL-coated glass coverslip and cultured in a 35-mm Petri dish. […] Giga-seal was maintained during the test. […] Whole-cell hERG currents were recorded following the Petroski protocol: the cell was held at −80 mV, and the voltage step jumped from −80 to 30 mV and stay for 2 seconds with a 20-millisecond prepulse at −40 mV. After depolarization, the voltage was decreased to −40 mV and stay for 2 seconds, and returned back to −80 mV. Test compound was applied by quartz capillary tubes tip (200 m inner diameter), and the flow rate was controlled at 2-3 mL/min with OctaFlow perfusion system. Different concentrations of the compound were applied to the cells for 5 minutes and the hERG current was measured three times before, during and after compound treatment. The data were analyzed using Clampfit 10 software (Molecular Devices) to generate IC50 values.

A word on the IC50: it is the midpoint of a concentration-inhibition curve. A high value points to a need for much substance. With `FC(F)(F)Oc1ccc(C(F)(F)CN2CCC(Nc3ncnc4[nH]ccc34)CC2)nc1` [US11752155, Compound C-11A'], the IC50 at 5 min turned out to be 3.8 µM.

For the origin of these results see BindingDB's records for patent US11752155 (Rugen Holdings (Cayman), 2023).
